Test [1] addresses T1, Serine/threonine-protein kinase D2 (Homo sapiens) (UniProt Q9BZL6).
T1 sequence (whole entry): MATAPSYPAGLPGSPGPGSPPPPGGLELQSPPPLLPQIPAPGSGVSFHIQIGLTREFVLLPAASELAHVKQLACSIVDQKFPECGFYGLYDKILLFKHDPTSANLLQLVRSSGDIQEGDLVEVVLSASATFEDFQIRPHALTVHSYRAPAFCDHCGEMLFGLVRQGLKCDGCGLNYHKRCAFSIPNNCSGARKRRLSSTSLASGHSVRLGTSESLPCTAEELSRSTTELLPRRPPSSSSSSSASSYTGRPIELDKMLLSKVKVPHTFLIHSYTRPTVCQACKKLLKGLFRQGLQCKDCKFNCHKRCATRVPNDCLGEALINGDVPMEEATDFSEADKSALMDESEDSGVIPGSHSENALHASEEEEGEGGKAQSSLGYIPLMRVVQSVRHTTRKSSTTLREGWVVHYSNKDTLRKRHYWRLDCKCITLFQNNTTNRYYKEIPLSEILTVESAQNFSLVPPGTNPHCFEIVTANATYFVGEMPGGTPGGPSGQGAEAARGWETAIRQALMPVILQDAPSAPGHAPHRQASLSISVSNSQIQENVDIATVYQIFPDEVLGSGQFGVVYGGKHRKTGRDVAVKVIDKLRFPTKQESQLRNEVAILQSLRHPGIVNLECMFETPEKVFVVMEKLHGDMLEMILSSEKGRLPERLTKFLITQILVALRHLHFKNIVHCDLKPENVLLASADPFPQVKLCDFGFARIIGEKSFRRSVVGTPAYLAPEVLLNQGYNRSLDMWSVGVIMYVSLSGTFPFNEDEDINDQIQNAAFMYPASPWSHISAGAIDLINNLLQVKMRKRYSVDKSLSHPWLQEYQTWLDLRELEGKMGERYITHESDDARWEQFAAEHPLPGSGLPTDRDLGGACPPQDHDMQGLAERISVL
The following applies: at 10 µM.

In test [2] the target is Eukaryotic translation initiation factor 2-alpha kinase 1 (Homo sapiens) (UniProt Q9BQI3). Briefly: Selectivity interaction (KinomeScan (DiscoverX)) EUB0000655a EIF2AK1. The settings on record: at 10 µM.
Eukaryotic translation initiation factor 2-alpha kinase 1 (Homo sapiens), sequence (Q9BQI3 whole entry): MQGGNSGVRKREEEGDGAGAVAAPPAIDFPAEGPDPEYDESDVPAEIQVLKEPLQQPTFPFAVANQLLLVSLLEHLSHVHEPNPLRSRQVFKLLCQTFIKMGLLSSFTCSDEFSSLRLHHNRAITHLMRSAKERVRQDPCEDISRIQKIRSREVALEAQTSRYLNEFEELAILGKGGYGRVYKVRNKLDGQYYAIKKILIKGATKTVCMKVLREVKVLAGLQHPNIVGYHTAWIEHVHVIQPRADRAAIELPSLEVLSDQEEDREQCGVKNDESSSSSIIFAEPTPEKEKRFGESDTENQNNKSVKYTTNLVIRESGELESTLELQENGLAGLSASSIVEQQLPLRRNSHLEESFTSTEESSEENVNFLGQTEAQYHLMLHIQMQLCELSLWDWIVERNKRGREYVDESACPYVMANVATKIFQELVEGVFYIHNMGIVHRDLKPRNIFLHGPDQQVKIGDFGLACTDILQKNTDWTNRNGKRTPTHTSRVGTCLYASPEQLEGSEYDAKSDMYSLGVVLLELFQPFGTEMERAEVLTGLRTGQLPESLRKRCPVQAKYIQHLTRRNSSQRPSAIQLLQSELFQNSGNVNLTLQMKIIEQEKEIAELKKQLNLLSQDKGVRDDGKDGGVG
The target in test [3] is Ephrin type-A receptor 7 (Homo sapiens) (UniProt Q15375). Briefly: Selectivity interaction (KinomeScan (DiscoverX)) EUB0000666a EPHA7. The settings on record: at 10 µM.
Ephrin type-A receptor 7 (Homo sapiens), sequence (Q15375 28-998 limits assumed): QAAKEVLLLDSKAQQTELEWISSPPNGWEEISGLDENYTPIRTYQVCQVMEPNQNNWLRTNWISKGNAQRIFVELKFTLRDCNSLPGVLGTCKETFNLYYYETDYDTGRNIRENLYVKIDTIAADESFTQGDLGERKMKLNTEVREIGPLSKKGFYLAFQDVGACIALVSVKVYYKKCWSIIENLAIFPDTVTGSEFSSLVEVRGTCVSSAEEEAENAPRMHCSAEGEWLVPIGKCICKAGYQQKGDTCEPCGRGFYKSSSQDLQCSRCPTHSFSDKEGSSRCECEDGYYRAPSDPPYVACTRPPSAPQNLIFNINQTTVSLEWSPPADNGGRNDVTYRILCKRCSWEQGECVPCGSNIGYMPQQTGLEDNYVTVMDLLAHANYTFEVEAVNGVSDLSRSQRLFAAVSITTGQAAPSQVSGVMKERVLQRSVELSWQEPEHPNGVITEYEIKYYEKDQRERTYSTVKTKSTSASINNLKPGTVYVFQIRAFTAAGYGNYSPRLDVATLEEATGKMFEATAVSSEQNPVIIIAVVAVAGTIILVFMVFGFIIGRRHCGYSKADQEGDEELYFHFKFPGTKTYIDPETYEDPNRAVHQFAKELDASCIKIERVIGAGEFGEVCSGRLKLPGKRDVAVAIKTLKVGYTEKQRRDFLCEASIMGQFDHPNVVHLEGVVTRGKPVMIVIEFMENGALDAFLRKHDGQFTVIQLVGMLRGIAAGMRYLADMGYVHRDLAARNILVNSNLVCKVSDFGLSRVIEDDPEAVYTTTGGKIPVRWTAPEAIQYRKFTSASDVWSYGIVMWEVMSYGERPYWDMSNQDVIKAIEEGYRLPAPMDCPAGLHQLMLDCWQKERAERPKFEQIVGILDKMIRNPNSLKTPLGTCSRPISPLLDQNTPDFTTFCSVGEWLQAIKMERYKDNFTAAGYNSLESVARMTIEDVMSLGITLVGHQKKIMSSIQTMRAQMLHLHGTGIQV
Test [4] has as its target Dual specificity mitogen-activated protein kinase kinase 2 (Homo sapiens) (UniProt P36507). Briefly: Selectivity interaction (ActivX KiNativ screen (kinase selectivity in THP-1 cell lysates)) EUB0000639a MAP2K2. In kind it is subcellular. The settings on record: lysate.
For test [5], the target named is T2, Serine/threonine-protein kinase Nek1 (Homo sapiens) (UniProt Q96PY6).
T2 sequence (whole entry): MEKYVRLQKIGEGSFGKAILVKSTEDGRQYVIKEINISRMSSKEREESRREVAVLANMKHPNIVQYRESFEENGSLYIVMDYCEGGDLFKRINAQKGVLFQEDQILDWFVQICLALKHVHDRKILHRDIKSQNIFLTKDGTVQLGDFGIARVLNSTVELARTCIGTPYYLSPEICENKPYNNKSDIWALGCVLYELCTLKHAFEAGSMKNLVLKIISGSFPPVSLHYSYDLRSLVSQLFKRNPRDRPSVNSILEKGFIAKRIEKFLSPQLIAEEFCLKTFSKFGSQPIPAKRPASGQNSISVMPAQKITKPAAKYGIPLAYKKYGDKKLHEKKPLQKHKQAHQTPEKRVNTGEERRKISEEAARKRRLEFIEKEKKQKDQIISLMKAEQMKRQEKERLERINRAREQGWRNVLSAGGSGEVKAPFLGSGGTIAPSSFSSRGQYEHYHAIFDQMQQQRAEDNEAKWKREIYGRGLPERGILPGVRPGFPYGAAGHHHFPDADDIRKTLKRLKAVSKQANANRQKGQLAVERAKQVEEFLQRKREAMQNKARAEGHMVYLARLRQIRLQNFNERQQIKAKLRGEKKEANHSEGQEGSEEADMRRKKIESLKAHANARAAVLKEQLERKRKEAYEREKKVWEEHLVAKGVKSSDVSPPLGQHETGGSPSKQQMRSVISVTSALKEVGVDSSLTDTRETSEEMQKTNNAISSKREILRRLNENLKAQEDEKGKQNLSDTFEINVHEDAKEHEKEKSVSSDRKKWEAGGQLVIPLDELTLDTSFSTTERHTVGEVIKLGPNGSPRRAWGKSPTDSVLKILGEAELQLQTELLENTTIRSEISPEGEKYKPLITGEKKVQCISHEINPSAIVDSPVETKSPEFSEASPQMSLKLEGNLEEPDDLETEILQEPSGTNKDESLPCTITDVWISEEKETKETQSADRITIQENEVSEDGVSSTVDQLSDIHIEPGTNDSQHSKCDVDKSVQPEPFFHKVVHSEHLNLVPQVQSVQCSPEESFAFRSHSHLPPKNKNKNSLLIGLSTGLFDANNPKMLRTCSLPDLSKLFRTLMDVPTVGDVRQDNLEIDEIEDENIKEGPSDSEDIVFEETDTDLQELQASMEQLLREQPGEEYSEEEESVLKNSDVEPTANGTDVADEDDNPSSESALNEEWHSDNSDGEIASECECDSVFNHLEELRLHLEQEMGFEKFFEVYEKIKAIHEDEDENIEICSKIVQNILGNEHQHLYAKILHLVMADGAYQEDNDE
Briefly: Selectivity interaction (ActivX KiNativ screen (kinase selectivity in THP-1 cell lysates)) EUB0000639a NEK1. In kind it is subcellular. The following applies: lysate.

The target in test [6] is T3, Serine/threonine-protein kinase 3 (Homo sapiens) (UniProt Q13188).
T3 sequence (whole entry): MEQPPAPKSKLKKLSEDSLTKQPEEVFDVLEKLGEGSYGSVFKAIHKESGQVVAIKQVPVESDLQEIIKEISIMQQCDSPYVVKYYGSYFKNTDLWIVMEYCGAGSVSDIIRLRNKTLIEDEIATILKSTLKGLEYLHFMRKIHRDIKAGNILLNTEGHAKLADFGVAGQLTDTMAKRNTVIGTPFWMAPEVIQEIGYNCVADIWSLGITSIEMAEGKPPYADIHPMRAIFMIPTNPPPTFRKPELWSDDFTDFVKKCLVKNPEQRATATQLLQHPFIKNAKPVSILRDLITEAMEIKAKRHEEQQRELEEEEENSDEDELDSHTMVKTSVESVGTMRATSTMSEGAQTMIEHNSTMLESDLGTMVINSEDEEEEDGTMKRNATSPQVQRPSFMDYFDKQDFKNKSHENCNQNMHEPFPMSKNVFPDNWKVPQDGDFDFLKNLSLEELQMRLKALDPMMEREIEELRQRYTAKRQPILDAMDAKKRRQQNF
Kind of test: Selectivity interaction (Kinase panel (literature)) EUB0001199aCl STK3. The following applies: at 1 µM.

Dual specificity mitogen-activated protein kinase kinase 2 (Homo sapiens), sequence (P36507 whole entry): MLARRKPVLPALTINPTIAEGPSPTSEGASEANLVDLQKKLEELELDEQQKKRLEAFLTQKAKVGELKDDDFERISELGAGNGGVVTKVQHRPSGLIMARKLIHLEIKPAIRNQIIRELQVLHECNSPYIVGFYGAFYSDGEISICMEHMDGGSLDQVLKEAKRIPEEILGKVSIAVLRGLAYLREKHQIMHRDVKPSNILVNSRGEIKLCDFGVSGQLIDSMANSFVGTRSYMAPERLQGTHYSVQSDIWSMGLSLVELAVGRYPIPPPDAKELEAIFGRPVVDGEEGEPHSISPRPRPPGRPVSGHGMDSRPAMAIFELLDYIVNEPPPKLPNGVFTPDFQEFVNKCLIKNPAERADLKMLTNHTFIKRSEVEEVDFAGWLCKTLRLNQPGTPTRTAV

In test [1], `Cc1cc([C@@H](C)Nc2ccccc2C(=O)O)c2nc(N3CCOCC3)cc(=O)n2c1` [AZD-6482] showed a % of control of 100%.

For the compound `CN(C)CCOc1ccc(-c2nc(-c3ccncc3)c(-c3ccc4c(c3)CC/C4=N\O)[nH]2)cc1`, the % of control in test [2] came out at 58%.

As for `O=C(NOC[C@H](O)CO)c1ccc(F)c(F)c1Nc1ccc(I)cc1F`, the % of control in test [3] came out at 94%.

As for `CC[C@@H]1[C@H](F)C(=O)N[C@@H]1COc1nccc2cc(C(N)=O)c(OC)cc12` [ZIMLOVISERTIB], the % of inhibition was -25.6% in test [4] (at 0.01 µM); -4.8% in test [4] (at 0.04 µM); -3.6% in test [4] (at 0.2 µM); 3.1% in test [4] (at 1 µM); 18.5% in test [4] (at 5 µM); -0.6% in test [5] (at 0.01 µM). The % of inhibition in test [5] (at 0.04 µM) is 7%; in test [5] (at 0.2 µM), 14.4%; in test [5] (at 1 µM), 4.9%; in test [5] (at 5 µM), -6.3%.

For `CN1Cc2nccc(-c3cn(C)nc3-c3ccc(F)cc3)c2C1=O`, the % of inhibition in test [6] was -2%.
